Laboratory results taken from patent publication US20040214305A1, “Method of improving biomass yield of lactic acid bacterial cultures” (DANMARKS TEKNISKE UNIVERSITET, priority 2000, published 2004).

Assays:
[1] = tested on: commercial mixed strain starter culture of Lactococcus lactis; experiment: Biomass production in pH controlled aerobic batch in complex media with haemin; assay type: cell-based; conditions: for Yield (OD600nm): haemin, aerobic pH controlled batch
Experimental: A commercial mixed strain starter culture of Lactococcus lactis was applied in this Example. The cultivations were performed on complex media containing hydrolysed skimmed milk powder, yeast extract, essential vitamins and minerals and either lactose or maltose as carbon source. Furthermore, the media were supplemented with haemin. Medium 1 and Medium 2 were optimised with respect to the cellular yield on respectively lactose and maltose as carbon source. All media were adjusted to an initial pH of 6.5.
The cultivations were inoculated with concentrated cell suspensions of the L. lactis culture. Air was sparged through the cultivation broths at a rate sufficient to maintain the dissolved oxygen concentration above 50% of saturation level. The cultivations were conducted at a temperature of 30° C. The cultures were allowed to acidify to pH 6.2, and subsequently maintained at pH 6.2 by controlled addition of 13.4 N NH4OH. Samples were collected throughout the cultivations for measurements of the optical density using a Hitachi U-1100 Spectrophotometer at […].

[2] = tested on: phospho-β-D-galactosidase in FHCY-1 cells; experiment: Phospho-beta-galactosidase activity (ONPG-P substrate) as lac operon expression; assay type: cell-based, Lactococcus lactis subsp. lactis; conditions: for Specific activity of phospho-β-D-galactosidase: FHCY-1 cells grown in M17 on the carbon/energy source, average of two determinations
Experimental: The expression of the lac operon in the cells grown on the various sugars was also tested by measuring the activity of the enzyme phospho-beta-galactosidase. Samples were taken from the cultures in FIG. 2 and processed as described previously (Jensen and Hammer, 1998). Subsequently, the activity of phospho-beta-galactosidase was determined as the standard determination of beta-galactosidase, except that o-nitrophenyl-beta-D-galactopyranoside 6-phosphate (ONPG-P) was used as the chromogenic substrate instead of o-nitrophenyl-beta-D-galactopyranoside (ONPG).

[3] = tested on: Lactococcus lactis subsp. cremoris PJ4662; experiment: Biomass yield (OD600) in aerobic batch culture in defined SA medium; assay type: cell-based; conditions: for Biomass: PJ4662, batch, maltose alone = 100; for Biomass / Increase of yield of biomass relative to MSA: SA medium with 0.1% maltose; for Increase of yield of biomass relative to MSA / Increase of yield of biomass relative to GSA: PJ4662, aerobic; for Increase of yield of biomass relative to GSA: SA medium with growth limiting glucose
Experimental: Wild type L. lactis subsp. cremoris PJ4662, a derivative of the strain MG1363 containing the pAK80 plasmid (Israelsen et al., 1995) was grown aerobically in defined SA medium (Jensen and Hammer, 1993) supplemented with a growth limiting concentration of glucose (GSA), and in GSA medium further supplemented with haemin (GSA+H), heamin+lipoic acid (GSA+H+L) and: lipoic acid alone (GSA+L). The biomass yield was estimated by measuring the optical density at 600 nm (OD600). The yield of biomass increased by about 12% relative to the yield obtained with GSA when the medium was supplemented with haemin, by about 25% using the haemin+lipoic acid supplement and by about 7% using lipoic acid alone.
L. lactis subsp. cremoris PJ4662 was grown aerobically in defined SA medium (Jensen and Hammer, 1993) supplemented with a growth-limiting concentration of 0.1% maltose (MSA), and in MSA medium further supplemented with haemin (MSA+H), haemin+lipoic acid (MSA+H+L) and lipoic acid alone (MSA+L). The biomass yield was estimated by measuring the optical density at 600 nm (OD600), see Table 1.2 below.
It was also tested whether the extent of aeration affected the biomass yield and the amount of ATP produced by oxidative phosphorylation by performing an experiment (Table 1.3) using more vigorous aeration as compared to the experiment illustrated in Table 1.2.
Wild type L. lactis subsp. cremoris PJ4662, a derivative of the strain MG1363 containing the pAK80 plasmid (Israelsen et al., 1995) was grown aerobically in defined SA medium (Jensen and Hammer, 1993) supplemented with a growth limiting concentration of galactose and lipoic acid (GaSAL), and in GaSAL medium further supplemented with haemin+lipoic acid (GaSALH). The biomass yield was estimated by measuring the optical density at 600 nm (OD600). The yield of biomass increased by 30% relative to the yield obtained with GaSAL when the medium was supplemented with haemin (GaSALH). A chemostat experiment was also performed with cells grown on galactose. Here the biomass increased by 75% compared to the biomass obtained in GaSAL medium.

atp mutant strain PJ4699 = experiment: Biomass yield (OD600) of atp mutant strain with lower H+-ATPase expression; assay type: cell-based, Lactococcus lactis; conditions: PJ4699, no nisin
Excerpt: In order to investigate whether or not the surplus of ATP that was found in the cultures cultivated in maltose medium (with haemin and lipoic acid) is due to oxidative phosphorylation it was decided to compare the biomass yield of a wild type strain and a strain which, relative to the wild type strain, has a lower expression of the H^+-ATPase complex. For that purpose a mutant strain of the MG1363 strain, PJ4699, was used. In this mutant strain the native promoter of the chromosomal atp operon has been replaced with the nisA promoter (de Ruyter et al., 1996).
This mutant therefore permitted an experiment to be performed where the biomass yield of the wild type strain and the H^+-ATPase mutant which had lower expression of the H^+-ATPase was compared. If ATP is synthesised by the H^+-ATPase complex, then the biomass yield on maltose should be lower in the mutant cells having lower activity of this enzyme, under conditions where oxidative phosphorylation is observed.

[4] = tested on: Lactococcus lactis subsp. cremoris; experiment: Intracellular [ATP]/[ADP] ratio in exponentially growing aerobic cultures; assay type: cell-based; conditions: MSA+L+H versus MSA+L
Experimental: The intracellular concentrations of ATP and ADP was measured to test whether the addition of a porphyrin to a culture growing on a poor carbon/energy source would increase the [ATP]/[ADP] ratio as might be expected if the ATP synthase starts to produce ATP. Samples were taken from exponentially growing cultures of Lactococcus lactis subsp. cremoris at cell densities between 0.2 and 0.8 (OD600). The total intracellular metabolite content were extracted as described previously (Andersen et al., 2001) and the concentrations of ATP and ADP were determined as described in Jensen et al. (1 993).

[5] = tested on: Lactococcus lactis subsp lactis FHCY-1; experiment: Growth in M17 batch cultures supplemented with different sugars; assay type: cell-based; conditions: FHCY-1, M17 medium
Experimental: Therefore, the growth of the starter culture strain, FHCY-1, was tested on various sugars.

[6] = Medium 1 (optimised for growth on lactose)

Compound	Yield (OD600nm) [1, 6]	Specific activity of phospho-β-D-galactosidase [2]	Increase of yield of biomass relative to MSA [3]	Increase of yield of biomass relative to GSA [3]	other results
OC[C@H]1O[C@@H](O[C@H]2[C@H](O)[C@@H](O)C(O)O[C@@H]2CO)[C@H](O)[C@@H](O)[C@H]1O (stereo partly drawn) [Lactose, lactose]	48 OD600nm	149.5	–	–	–
OC[C@H]1O[C@H](O[C@H]2[C@H](O)[C@@H](O)[C@H](O)O[C@@H]2CO)[C@H](O)[C@@H](O)[C@@H]1O [maltose]	60 OD600nm	37.5	–	–	Biomass ([3]; moderate aeration): 100%; Biomass ([3]; vigorous aeration): 100%; Yield (OD600nm) ([1]; Medium 2 (optimised for growth on maltose)): 96 OD600nm; Increase of final yield of biomass compared to the lactose culture ([1]; medium 1, haemin, aerobic): 25%; Yield of biomass compared to optimised lactose medium ([1]; medium 2, haemin, aerobic): two-fold higher
O=C(O)CCCC[C@@H]1CCSS1 (racemic) [lipoic acid]	–	–	48%	about 7%	–
haemin	–	–	33%	about 12%	Growth of the nisin-dependent atp mutant without nisin (atp mutant strain PJ4699): capable of growth without nisin; Growth rate increase of haemin culture versus culture without haemin [4]: 30%
O=C[C@H](O)[C@@H](O)[C@@H](O)[C@H](O)CO [Galactose, galactose]	–	172.2	–	–	Reduction of growth compared to lactose [5]: approximately 20%; Increase of phospho-β-D-galactosidase activity compared to lactose ([2]; FHCY-1 cells): 20%
